Assay results from patent US10703760B2, “Morphic forms of marizomib and uses thereof” (Celgene International II Sàrl, priority 2016, dated 2020).

Legend:
Assay type in all cases: physicochemical
[1] = Thermogravimetric analysis (TGA)
Experimental: TGA data were collected on a TA Instruments Q500 TGA, equipped with a 16-position auto-sampler. The instrument was temperature calibrated using certified Alumel™ and Nickel. Typically 5-10 mg of each sample was loaded onto a pre-tared aluminum DSC pan and heated at 10° C./min from ambient temperature to 350° C. A nitrogen purge at 60 ml/min was maintained over the sample.
TG analyses were performed using a TA Instruments Q5000 IR thermogravimetric analyzer. Temperature calibration was performed using nickel and Alumel™. Each sample was placed in an aluminum pan. The sample was hermetically sealed, the lid pierced, then inserted into the TG furnace. The furnace was heated under nitrogen.

[2] = Salt screen of marizomib; details: sulfonic acids and mineral acids
Experimental: For crash cooling (CC), a solution of MRZ and coformer was prepared at elevated temperature in a given solvent mixture. The vial was capped and immediately placed in a refrigerator or freezer. For fast cooling (FC), solutions of MRZ and coformer were prepared at elevated temperatures in given solvents or solvent mixtures. The vial was capped and placed on a bench top at room temperature to quickly cool. For slow cooling (SC), a solution of MRZ and coformer was prepared at elevated temperature in a given solvent mixture. The vial was capped and left in a heating block at elevated temperature. The heater then was turned off for the sample to cool down naturally to room temperature. For slow evaporation (SE), solutions of MRZ and coformer were generated at ambient temperature in a given solvent or solvent mixture. The solutions were allowed to evaporate partially or to dryness from a loosely capped vial at ambient conditions. Slurry experiments were carried out by making saturated solutions containing excess solid. The slurries were agitated at ambient or elevated temperatures for a specified amount of time. The solids present were recovered via positive pressure filtration. Solvent assisted grinding experiments were carried out by mixing MRZ and coformer in an agate mortar and pestle. Aliquots of solvent were added and the mixture ground manually for specified amount of time. […]

[3] = Cocrystal screen of marizomib

Structure (SMILES): C[C@@]12OC(=O)[C@]1([C@@H](O)[C@@H]1C=CCCC1)NC(=O)[C@@H]2CCCl [Sample 4, marizomib]
- TGA weight loss prior to decomposition [1]: negligible weight loss prior to decomp
- TGA (onset, decomp.) ([1]; Sample 4 prior to testing): 168 °C (onset, decomp.)
- TGA: decomposition after ([1]; as stated in cocrystal discussion): approximately 150 °C

Structure (SMILES): C[C@@]12OC(=O)[C@]1([C@@H](O)[C@@H]1C=CCCC1)NC(=O)[C@@H]2CCCl [marizomib]
- weight loss (TGA) ([1]; solids from 2-pyrrolidone (1:1) cocrystal experiment, from 27.1° C. to 92.0° C.): 5.0%
- weight loss (TGA) ([1]; solids from Melamine (1:1) cocrystal experiment, from 30.2° C. to 104.0° C.): 10.3%
- weight loss (TGA) ([1]; solids from Melamine (1:1) cocrystal experiment, from 30.2° C. to 146.0° C.): C. 21.1%
- Crystalline salt formation [2]: No crystalline salt of marizomib was produced
- Cocrystal formation ([3]; about 117 experiments, 46 coformers/counterions): cocrystal formation did not occur
- XRPD Results ([3]; coformer (2-hydroxypropyl)-β-cyclodextrin (1:1), MeOH/acetone, slurry 50° C. 2 days, supernatant decanted, SE, RT): MRZ
- XRPD Results ([3]; coformer (2-hydroxypropyl)-β-cyclodextrin (2:1), H2O/ACN, slurry 50° C. 2 days, slurry RT 6 days, SE, RT): MRZ
- XRPD Results ([3]; coformer Acetic acid (1:2), acetone, stir, RT, 5 days, cool 2-8° C., 3 days, SE, RT): MRZ
- XRPD Results ([3]; coformer Acetic acid (large excess), slurry, RT): MRZ
- XRPD Results ([3]; coformer Adenine (1:1), EtOH, slurry, RT, 5 days): MRZ
- XRPD Results ([3]; coformer Benzoic acid (1:5), MEK:MIBK (20:80), slurry, RT, 7 days): MRZ
- XRPD Results ([3]; coformer Benzoic acid (2:1), EtOAc, SE, RT): MRZ
- XRPD Results ([3]; coformer Caffeine (1:3), DMF:anisole (25:75), slurry, RT, 6 days): Caffeine
- XRPD Results ([3]; coformer DL-malic acid (1:3), dioxane, slurry 60° C. O/N, stir RT 1 day, FE, RT): MRZ
- XRPD Results ([3]; coformer Gentisic acid (1:1), t-BuOH, slurry, 50° C., 2 days): MRZ
- XRPD Results ([3]; coformer Gentisic acid (1:5), MEK:IPA (20:80), slurry, RT, 6 days): MRZ
- XRPD Results ([3]; coformer Gentisic acid (2:1), ACN, FC, 60° C. to RT): MRZ
- XRPD Results ([3]; coformer Glutaric acid (1:3), EtOH, slurry, RT, 6 days): MRZ
- XRPD Results ([3]; coformer Glycolic acid (1:2), acetone, SE, RT): MRZ
- XRPD Results ([3]; coformer Hydantoin (1:1), 2:1 dioxane:H2O, slurry, RT): MRZ
- XRPD Results ([3]; coformer Hydantoin (1:3), H2O/ACN, slurry 60° C. overnight, stir RT 1 day): MRZ
- XRPD Results ([3]; coformer L-Serine (1:1), H2O/THF, stir RT 3 days, SE, RT): MRZ
- XRPD Results ([3]; coformer L-Serine (1:3), H2O/MeOAc, slurry 60° C. O/N, stir RT 1 day, FE, RT): MRZ
- XRPD Results ([3]; coformer L-alanine (1:1), MeOH, slurry 60° C. O/N, slurry RT 1 day): MRZ
- XRPD Results ([3]; coformer L-arginine (1:1), HFIPA/dioxane, stir, RT, ~25 minutes): MRZ
- XRPD Results ([3]; coformer L-ascorbic acid (1:1), IPA/MeOH at 50° C., FC to RT): MRZ
- XRPD Results ([3]; coformer L-cysteine (1:1), grind ~10 minutes, EtOH/dioxane (50/50), temperature cycle RT and 50° C.): MRZ
- XRPD Results ([3]; coformer L-lysine (1:1), HFIPA/THF, stir, RT, ~35 minutes): MRZ
- XRPD Results ([3]; coformer L-proline (sat'd in IPA at 50° C.), added to MRZ at 50° C., temp cycle (50° C.-RT)): MRZ
- XRPD Results ([3]; coformer L-proline sat'd in H2O/MeOH 50/50 v/v, slurry 50° C. 2 days, slurry RT 3 days): L-proline
- XRPD Results ([3]; coformer Maleic acid (1:1), nitromethane, SC, 50° C. to RT): MRZ
- XRPD Results ([3]; coformer Maleic acid (1:3), 1-PrOH, slurry, RT, 6 days): MRZ
- XRPD Results ([3]; coformer Nicotinamide (1:1), ACN, FC, 70° C. to RT): MRZ
- XRPD Results ([3]; coformer Orotic acid (2:1), nitromethane, slurry, 50° C., 6 days): MRZ
- XRPD Results ([3]; coformer Oxalic acid (1:2), EtOH/MEK, stir, RT, 7 days): MRZ
- XRPD Results ([3]; coformer Saccharin (1:1), IPA, FC, 70° C. to RT): MRZ
- XRPD Results ([3]; coformer Salicylic acid (1:1), EtOAc:toluene (50:50), FC, 75° C. to RT): MRZ
- XRPD Results ([3]; coformer Salicylic acid (1:3), EtOH/MIBK, stir, RT): MRZ
- XRPD Results ([3]; coformer Succinic acid (1:2), MeOH/acetone, stir, RT, 5 days): MRZ
- XRPD Results ([3]; coformer Thymine (1:1), MeOH/EtOAc, slurry 50° C. 2 days, slurry RT 6 days): Thymine
- XRPD Results ([3]; coformer Urea (2:1), EtOAc, FC, 50° C. to RT): MRZ
